# The NIST ThermoML archive (doi:10.1021/je200195q)
# Numbers after ± are expanded uncertainties.
# Test: activity coefficient (dimensionless); of the first substance listed, at infinite dilution; xn = mol fraction of the nth substance listed
# Details: 101 kPa, Liquid, Chromatography, x1 = 0
smiles,measurement,setting,value
CCCO [propan-1-ol] + CCCCn1cc[n+](C)c1.O=S(=O)([N-]S(=O)(=O)C(F)(F)C(F)(F)F)C(F)(F)C(F)(F)F,activity coefficient,322.55 K,1.99 ± 0.14
same,activity coefficient,342.75 K,1.62 ± 0.11
same,activity coefficient,362.65 K,1.35 ± 0.088
CCCCCCC [heptane] + CCCCn1cc[n+](C)c1.O=S(=O)([N-]S(=O)(=O)C(F)(F)C(F)(F)F)C(F)(F)C(F)(F)F,activity coefficient,322.55 K,13.6 ± 0.93
same,activity coefficient,342.75 K,12.4 ± 0.84
same,activity coefficient,362.65 K,11.6 ± 0.79
CCO [ethanol] + CCCCCCCCCCn1cc[n+](CCCCCCCCCC)c1C.O=S(=O)([N-]S(=O)(=O)C(F)(F)F)C(F)(F)F,activity coefficient,323.1 K,1.27 ± 0.082
same,activity coefficient,333.15 K,1.15 ± 0.073
same,activity coefficient,343.15 K,1.04 ± 0.065
CCCCCC [hexane] + CCCCCCCCCCn1cc[n+](CCCCCCCCCC)c1C.O=S(=O)([N-]S(=O)(=O)C(F)(F)F)C(F)(F)F,activity coefficient,323.1 K,1.82 ± 0.12
same,activity coefficient,333.15 K,1.79 ± 0.12
same,activity coefficient,343.15 K,1.76 ± 0.12
CCCCCCC [heptane] + CCCCCCCCCCn1cc[n+](CCCCCCCCCC)c1C.O=S(=O)([N-]S(=O)(=O)C(F)(F)F)C(F)(F)F,activity coefficient,323.1 K,2.53 ± 0.17
same,activity coefficient,333.15 K,2.11 ± 0.14
same,activity coefficient,343.15 K,2.08 ± 0.14
C=O [methanal] + CCCCCC[n+]1ccn(C)c1.FC(F)(F)C(F)(F)[P-](F)(F)(F)(C(F)(F)C(F)(F)F)C(F)(F)C(F)(F)F,activity coefficient,312.8 K,0.096 ± 0.03
same,activity coefficient,332.85 K,0.134 ± 0.029
same,activity coefficient,354.65 K,0.146 ± 0.029
C=CCCCC [hex-1-ene] + CCCCCCCCCCn1cc[n+](CCCCCCCCCC)c1C.O=S(=O)([N-]S(=O)(=O)C(F)(F)F)C(F)(F)F,activity coefficient,323.1 K,1.39 ± 0.091
same,activity coefficient,333.15 K,1.38 ± 0.09
same,activity coefficient,343.15 K,1.36 ± 0.089
CCC(=O)CC [pentan-3-one] + CCCCCCCCCCn1cc[n+](CCCCCCCCCC)c1C.O=S(=O)([N-]S(=O)(=O)C(F)(F)F)C(F)(F)F,activity coefficient,323.1 K,0.37 ± 0.03
same,activity coefficient,333.15 K,0.378 ± 0.033
same,activity coefficient,343.15 K,0.386 ± 0.033
CCC(C)CC [3-methylpentane] + CCCCCC[n+]1ccn(C)c1.FC(F)(F)C(F)(F)[P-](F)(F)(F)(C(F)(F)C(F)(F)F)C(F)(F)C(F)(F)F,activity coefficient,312.8 K,5.63 ± 0.38
same,activity coefficient,332.85 K,5.05 ± 0.34
same,activity coefficient,354.65 K,4.43 ± 0.3
CC#N [acetonitrile] + CCCCCC[n+]1ccn(C)c1.FC(F)(F)C(F)(F)[P-](F)(F)(F)(C(F)(F)C(F)(F)F)C(F)(F)C(F)(F)F,activity coefficient,312.8 K,0.295 ± 0.031
same,activity coefficient,332.85 K,0.295 ± 0.031
same,activity coefficient,354.65 K,0.292 ± 0.031
C=O [methanal] + CCCCn1cc[n+](C)c1.O=S(=O)([N-]S(=O)(=O)C(F)(F)C(F)(F)F)C(F)(F)C(F)(F)F,activity coefficient,322.55 K,0.134 ± 0.029
same,activity coefficient,342.75 K,0.155 ± 0.029
same,activity coefficient,362.65 K,0.164 ± 0.029
CO [methanol] + CCCCCC[n+]1ccn(C)c1.FC(F)(F)C(F)(F)[P-](F)(F)(F)(C(F)(F)C(F)(F)F)C(F)(F)C(F)(F)F,activity coefficient,312.8 K,1.57 ± 0.1
same,activity coefficient,332.85 K,2.01 ± 0.14
same,activity coefficient,354.65 K,1.58 ± 0.1
CCCCCCCCCCCCC [tridecane] + CCn1cc[n+](C)c1.CS(=O)(=O)[O-],activity coefficient,312.55 K,3380 ± 230
same,activity coefficient,322.45 K,3280 ± 230
same,activity coefficient,332.45 K,3070 ± 210
C1CCCCCC1 [cycloheptane] + CCCCn1cc[n+](C)c1.O=S(=O)([N-]S(=O)(=O)C(F)(F)C(F)(F)F)C(F)(F)C(F)(F)F,activity coefficient,322.55 K,19.8 ± 1.4
same,activity coefficient,342.75 K,35.2 ± 2.4
same,activity coefficient,362.65 K,56.5 ± 3.9
CC1CCCC1 [methylcyclopentane] + CCCCCC[n+]1ccn(C)c1.FC(F)(F)C(F)(F)[P-](F)(F)(F)(C(F)(F)C(F)(F)F)C(F)(F)C(F)(F)F,activity coefficient,312.8 K,4.58 ± 0.31
same,activity coefficient,332.85 K,4.09 ± 0.28
same,activity coefficient,354.65 K,3.52 ± 0.24
CC(C)CO [2-methyl-1-propanol] + CCCCCCCCCCn1cc[n+](CCCCCCCCCC)c1C.O=S(=O)([N-]S(=O)(=O)C(F)(F)F)C(F)(F)F,activity coefficient,323.1 K,1.3 ± 0.084
same,activity coefficient,333.15 K,1.17 ± 0.075
same,activity coefficient,343.15 K,1.06 ± 0.067
CCC[N+](=O)[O-] [1-nitropropane] + CCn1cc[n+](C)c1.CS(=O)(=O)[O-],activity coefficient,312.55 K,4.19 ± 0.28
same,activity coefficient,322.45 K,2.7 ± 0.18
same,activity coefficient,332.45 K,1.73 ± 0.12
